Laboratory results from USRE39056E1, “4-Azasteroids for treatment of hyperandrogenic conditions” (Merck & Co, Inc., priority 1995, dated 2006).
Read-outs that look alike come from different tables or passages of the source.

Legend:
type 1 5α-reductase = target: T1, type 1 5α-reductase (Homo sapiens, UniProt P18405); experiment: 5α-reductase assay, type 1 (human scalp homogenate), inhibition studies; assay type: biochemical
T1 construct: Preparation of Human Prostatic and Scalp 5α-reductases; from tissue; host or cells: human scalp (crude nuclear pellet of the homogenate)
T1 sequence (P18405 1-259): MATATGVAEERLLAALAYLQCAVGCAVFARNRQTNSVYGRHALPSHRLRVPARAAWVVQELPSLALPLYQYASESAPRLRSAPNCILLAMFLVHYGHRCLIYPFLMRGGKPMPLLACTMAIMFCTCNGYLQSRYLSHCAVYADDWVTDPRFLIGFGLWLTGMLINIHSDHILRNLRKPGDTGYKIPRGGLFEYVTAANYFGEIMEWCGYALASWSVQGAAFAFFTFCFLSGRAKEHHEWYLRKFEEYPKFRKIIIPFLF
Protocol: (§1) Samples of human tissue were pulverized using a freezer mill and homogenized in 40 mM potassium phosphate, pH 6.5, 5 mM magnesium sulfate, 25 mM potassium chloride, 1 mM phenylmethyl-sulfonyl fluoride, 1 mM dithiothreitol (DTT) containing 0.25 M sucrose using a Potter-Elvehjem homogenizer. A crude nuclear pellet was prepared by centrifugation of the homogenate at 1,500× G for 15 min. The crude nuclear pellet was washed two times and resuspended in two volumes of buffer. Glycerol was added to the resuspended pellet to a final concentration of 20%. The enzyme suspension was frozen in aliquots at −80° C.
(§2) The reaction mixture for the type 1 5α-reductase contained 40 mM potassium phosphate, pH 6.5, […] [7-^3H]-testosterone, 1 mM dithiothreitol and 500 μM NADPH in a final volume of 100 μL. The reaction mixture for the type 2 5α-reductase contained 40 mM sodium citrate, pH 5.5 0.3 mM [7-^3H]-testosterone, 1 mM dithiothreitol and 500 μM NADPH in a final volume of 100 μL. Typically, the assay was initiated by the addition of 50-100 μg prostatic homogenate or 75-200 μg scalp homogenate and incubated at 37° C. After 10-50 min. the reaction was quenched by extraction with 250 μL of a mixture of 70% cyclohexane: 30% ethyl acetate containing 10 μg each DHT and T. The aqueous and organic layers were separated by centrifugation at 14,000 rpm in an Eppendorf microfuge. The organic layer was subjected to normal phase HPLC (10 cm Whatman partisil 5 silica column established in 1 ml/min 70% cyclohexane: 30% ethyl acetate; retention times: DHT, 6.8-7.2 min.; androstanediol, 7.6-8.0 min.; T, 9.1-9.7 min.). […] The conversion of T to DHT was monitored using the radioactivity flow detector by mixing the HPLC effluent with one volume of Flo Scint 1 (Radiomatic).
(§3) Compounds were dissolved in 100% ethanol. The compound to be tested was pre-incubated with the enzyme (either 5α-reductase type 1 or 2) prior to initiation by addition of substrate testosterone. […] Representative compounds of this invention were tested in the above described assay for 5α-reductase type 1 and type 2 inhibition.

type 2 5α-reductase = target: T2, type 2 5α-reductase (Homo sapiens, UniProt P31213); experiment: 5α-reductase assay, type 2 (human prostatic homogenate), inhibition studies; assay type: biochemical
T2 construct: Preparation of Human Prostatic and Scalp 5α-reductases; from tissue; host or cells: human prostate (crude nuclear pellet of the homogenate)
T2 sequence (P31213 1-254): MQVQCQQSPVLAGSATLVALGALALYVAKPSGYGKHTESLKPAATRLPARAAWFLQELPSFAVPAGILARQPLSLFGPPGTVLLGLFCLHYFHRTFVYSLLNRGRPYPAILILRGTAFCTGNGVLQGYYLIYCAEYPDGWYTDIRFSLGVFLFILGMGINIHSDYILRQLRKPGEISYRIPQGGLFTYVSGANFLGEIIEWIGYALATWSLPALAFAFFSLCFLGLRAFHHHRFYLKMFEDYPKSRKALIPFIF
Protocol: as §1, §2, §3

human androgen receptor = target: T3, human androgen receptor (Homo sapiens, UniProt P10275); experiment: Human androgen receptor activity assay (anti-androgen activity, hAR); assay type: binding
T3 sequence (P10275 1-920): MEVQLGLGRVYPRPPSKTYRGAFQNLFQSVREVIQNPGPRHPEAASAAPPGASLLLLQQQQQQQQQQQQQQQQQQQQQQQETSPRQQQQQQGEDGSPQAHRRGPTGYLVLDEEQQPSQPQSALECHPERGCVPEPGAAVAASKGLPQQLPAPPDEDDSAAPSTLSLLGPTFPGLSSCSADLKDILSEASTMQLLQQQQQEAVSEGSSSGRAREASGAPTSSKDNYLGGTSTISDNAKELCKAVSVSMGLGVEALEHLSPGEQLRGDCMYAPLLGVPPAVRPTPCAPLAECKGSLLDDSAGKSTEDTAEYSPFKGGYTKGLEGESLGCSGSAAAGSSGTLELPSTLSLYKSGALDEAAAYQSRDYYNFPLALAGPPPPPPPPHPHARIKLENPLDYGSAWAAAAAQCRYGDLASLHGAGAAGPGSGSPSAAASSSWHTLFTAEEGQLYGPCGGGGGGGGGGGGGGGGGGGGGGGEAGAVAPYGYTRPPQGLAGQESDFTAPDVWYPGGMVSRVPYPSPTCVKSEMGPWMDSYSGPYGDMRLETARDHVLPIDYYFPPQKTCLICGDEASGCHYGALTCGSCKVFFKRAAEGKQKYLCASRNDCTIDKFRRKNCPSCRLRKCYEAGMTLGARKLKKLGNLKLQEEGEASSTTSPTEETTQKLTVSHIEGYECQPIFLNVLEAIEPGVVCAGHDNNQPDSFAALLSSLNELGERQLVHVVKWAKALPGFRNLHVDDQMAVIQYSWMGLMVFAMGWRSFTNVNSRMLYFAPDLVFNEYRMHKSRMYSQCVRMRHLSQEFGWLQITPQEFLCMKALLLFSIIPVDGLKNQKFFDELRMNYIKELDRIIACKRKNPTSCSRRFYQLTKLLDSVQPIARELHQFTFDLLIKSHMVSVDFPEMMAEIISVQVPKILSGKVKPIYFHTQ

[1] = human, anti-androgen activity, read-out: IC50 hAR
[2] = human, conversion of testosterone to DHT, pH 6.5, read-out: IC50 Type 1 5aR
[3] = human, conversion of testosterone to DHT, pH 5.5, read-out: IC50 Type 2 5aR

SMILES | IC50 (type 1 5α-reductase) [µM] | IC50 (type 2 5α-reductase) [µM] | IC50 (human androgen receptor; [1]) [µM] | IC50 (human androgen receptor) [µM] | IC50 (type 1 5α-reductase; [2]) [µM] | IC50 (type 2 5α-reductase; [3]) [µM]
CN1C(=O)C=C[C@]2(C)[C@H]3CC[C@]4(C)[C@@H](C(=O)Nc5ccc(Cl)cc5)CC[C@H]4[C@@H]3CC[C@@H]12 [Example 1, N-(4-chlorophenyl)-3-oxo-4-methyl-4-aza-5α-androst-1-ene-17β-carboxamide] | 0.04 | 0.1 | 0.01 | – | – | –
COc1ccccc1NC(=O)[C@H]1CC[C@H]2[C@@H]3CC[C@H]4N(C)C(=O)C=C[C@]4(C)[C@H]3CC[C@]12C [Example 2, N-(2-methoxyphenyl)-3-oxo-4-aza-4-methyl-5α-androst-1-ene-17β-carboxamide] | 0.02 | 0.1 | – | 0.04 | – | –
CN1C(=O)C=C[C@]2(C)[C@H]3CC[C@]4(C)[C@@H](C(=O)Nc5ccccc5F)CC[C@H]4[C@@H]3CC[C@@H]12 [Example 3, N-(2-fluorophenyl)-3-oxo-4-aza-4-methyl-5α-androst-1-ene-17β-carboxamide] | 0.02 | 0.06 | – | 0.009 | – | –
CN1C(=O)C=C[C@]2(C)[C@H]3CC[C@]4(C)[C@@H](C(=O)Nc5ccccc5C(F)(F)F)CC[C@H]4[C@@H]3CC[C@@H]12 [Example 4, N-(2-trifluoromethyl-phenyl)-3-oxo-4-aza-4-methyl-5α-androst-1-ene-17β-carboxamide] | 0.002 | 0.007 | – | 0.03 | – | –
Cc1ccccc1NC(=O)[C@H]1CC[C@H]2[C@@H]3CC[C@H]4N(C)C(=O)C=C[C@]4(C)[C@H]3CC[C@]12C [Example 5, N-(2-methylphenyl)-3-oxo-4-aza-4-methyl-5α-androst-1-ene-17β-carboxamide] | 0.02 | 0.02 | – | 0.03 | – | –
CN1C(=O)C=C[C@]2(C)[C@H]3CC[C@]4(C)[C@@H](C(=O)Nc5ccccc5Cl)CC[C@H]4[C@@H]3CC[C@@H]12 [Example 6, N-(2-chlorophenyl)-3-oxo-4-aza-4-methyl-5α-androst-1-ene-17β-carboxamide] | 0.006 | 0.01 | – | 0.008 | – | –
CN1C(=O)C=C[C@]2(C)[C@H]3CC[C@]4(C)[C@@H](C(=O)Nc5cc(C(F)(F)F)ccc5C(F)(F)F)CC[C@H]4[C@@H]3CC[C@@H]12 [Example 7, N-(2,5-bistrifluoromethyl-phenyl)-3-oxo-4-aza-4-methyl-5α-androst-1-ene-17β-carboxamide] | 0.004 | 0.02 | – | 0.02 | – | –
CN1C(=O)C=C[C@]2(C)[C@H]3CC[C@]4(C)[C@@H](C(=O)NC(c5ccccc5)c5ccccc5)CC[C@H]4[C@@H]3CC[C@@H]12 [Example 10, N-(diphenylmethyl)-4-methyl-3-oxo-4-aza-5α-androst-1-ene-17-β-carboxamide] | – | – | 0.04 | – | 0.02 | 0.002
CN(C(=O)[C@H]1CC[C@H]2[C@@H]3CC[C@H]4N(C)C(=O)C=C[C@]4(C)[C@H]3CC[C@]12C)C(c1ccccc1)c1ccccc1 [Example 11, N-(diphenylmethyl)-N-(methyl)-4-methyl-3-oxo4-aza-5α-androst-1-ene-17-β-carboxamide] | – | – | 0.85 | – | 0.003 | 0.0003
